# Tested on: Rattus norvegicus
# Test: Accumulation of 5-Hydroxytryptophan in striatal region in rat after injecting drug compound 65 min and NSD 1015 at a dose of 100 mg/kg administered subcutaneously, 30 min before death, tested in vivo
# Assay type: functional
# Details: route subcutaneous
row,SMILES,Control [%]
1,FC(F)(F)c1cccc(C2CCNC2)c1 (centres undefined),82
2,CCCN1CCC(c2cccc3ccccc23)C1 (centres undefined),54
3,CCCN1CCC(c2ccccc2)C1 (centres undefined),81
4,CCCN1CCC(C2CCCCC2)C1 (centres undefined),103
5,CN1CCC(C2=CN=CCC2)C1 (centres undefined),112
6,CCCN1CCC(c2cccc(OS(=O)(=O)C(F)(F)F)c2)C1 (centres undefined),86

# Tested on: Rattus norvegicus
# Test: Accumulation of Dihydroxyphenylalanine in limbic region in rat after injecting drug compound 65 min and NSD 1015 at a dose of 100 mg/kg administered subcutaneously, 30 min before death, tested in vivo
# Assay type: functional, Limbic system
# Details: route subcutaneous
row,SMILES,Control [%]
1,FC(F)(F)c1cccc(C2CCNC2)c1 (centres undefined),113
2,CCCN1CCC(c2cccc3ccccc23)C1 (centres undefined),118
3,CCCN1CCC(c2ccccc2)C1 (centres undefined),96
4,CCCN1CCC(C2CCCCC2)C1 (centres undefined),116
5,CN1CCC(C2=CN=CCC2)C1 (centres undefined),112
6,CCCN1CCC(c2cccc(OS(=O)(=O)C(F)(F)F)c2)C1 (centres undefined),211

# Tested on: Rattus norvegicus
# Test: Accumulation of Dihydroxyphenylalanine in striatal region in rat after injecting drug compound 65 min and NSD 1015 at a dose of 0.07 mg/kg administered subcutaneously, 30 min before death, tested in vivo
# Assay type: functional
# Details: route subcutaneous
row,SMILES,Control [%]
1,O=C(CCCN1CCC(O)(c2ccc(Cl)cc2)CC1)c1ccc(F)cc1 [HALOPERIDOL],310

# Target: T1, 5-hydroxytryptamine receptor 1A (Rattus norvegicus, UniProt P19327)
# T1 sequence (P19327 whole entry): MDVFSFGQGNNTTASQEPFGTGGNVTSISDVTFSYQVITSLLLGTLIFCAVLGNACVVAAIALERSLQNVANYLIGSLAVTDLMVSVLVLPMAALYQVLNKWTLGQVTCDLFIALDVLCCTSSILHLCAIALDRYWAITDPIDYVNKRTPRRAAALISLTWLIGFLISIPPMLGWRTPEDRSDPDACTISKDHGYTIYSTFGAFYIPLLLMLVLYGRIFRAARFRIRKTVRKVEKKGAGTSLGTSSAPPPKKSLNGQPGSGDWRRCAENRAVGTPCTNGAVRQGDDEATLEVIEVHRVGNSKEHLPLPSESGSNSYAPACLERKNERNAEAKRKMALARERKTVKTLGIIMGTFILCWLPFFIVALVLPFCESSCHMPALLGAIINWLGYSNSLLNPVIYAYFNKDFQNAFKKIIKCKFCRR
# Test: Binding affinity against [3H]8-OH-DPAT binding to 5-hydroxytryptamine 1A receptor expressed in CHO-K1 cells
# Assay type: cell-based
# Details: not given
row,SMILES,Ki [nM]
1,FC(F)(F)c1cccc(C2CCNC2)c1 (centres undefined),174
2,CCCN1CCC(c2cccc3ccccc23)C1 (centres undefined),73
3,CCCN1CCC(c2ccccc2)C1 (centres undefined),453
4,CCCN1CCC(c2cccc(OS(=O)(=O)C(F)(F)F)c2)C1 (centres undefined),652

# Tested on: Rattus norvegicus
# Test: Accumulation of Dihydroxyphenylalanine in striatal region in rat after injecting drug compound 65 min and NSD 1015 at a dose of 100 mg/kg administered subcutaneously, 30 min before death, tested in vivo
# Assay type: functional
# Details: route subcutaneous
row,SMILES,Control [%]
1,FC(F)(F)c1cccc(C2CCNC2)c1 (centres undefined),163
2,CCCN1CCC(c2cccc3ccccc23)C1 (centres undefined),177
3,CCCN1CCC(c2ccccc2)C1 (centres undefined),66
4,CCCN1CCC(C2CCCCC2)C1 (centres undefined),95
5,CN1CCC(C2=CN=CCC2)C1 (centres undefined),112
6,CCCN1CCC(c2cccc(OS(=O)(=O)C(F)(F)F)c2)C1 (centres undefined),290

# Target: T2, Serotonin 2 (5-HT2) receptor (Rattus norvegicus, UniProt P30994+P08909+P14842)
# Test: Binding affinity against [3H]ketanserin binding to 5-hydroxytryptamine 2 receptor expressed in CHO-K1 cells
# Assay type: cell-based
# Details: not given
row,SMILES,Ki [nM]
1,FC(F)(F)c1cccc(C2CCNC2)c1 (centres undefined),227
2,CCCN1CCC(c2cccc3ccccc23)C1 (centres undefined),113

# Target: T3, D(2) dopamine receptor (Rattus norvegicus, UniProt P61169)
# T3 sequence (P61169 whole entry): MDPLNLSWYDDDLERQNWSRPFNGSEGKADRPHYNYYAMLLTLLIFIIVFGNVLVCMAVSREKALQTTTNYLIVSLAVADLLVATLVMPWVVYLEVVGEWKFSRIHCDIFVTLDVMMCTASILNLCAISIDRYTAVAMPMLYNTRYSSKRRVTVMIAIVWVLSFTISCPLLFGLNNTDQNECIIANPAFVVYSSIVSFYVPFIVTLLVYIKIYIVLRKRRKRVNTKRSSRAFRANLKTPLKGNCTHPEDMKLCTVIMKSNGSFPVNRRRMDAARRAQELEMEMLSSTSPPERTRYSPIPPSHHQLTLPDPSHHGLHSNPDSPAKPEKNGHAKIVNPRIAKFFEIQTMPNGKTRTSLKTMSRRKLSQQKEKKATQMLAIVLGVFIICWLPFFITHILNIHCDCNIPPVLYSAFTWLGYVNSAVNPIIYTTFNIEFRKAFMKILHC
# Test: Inhibitory concentration against [3H]U-86170 binding to Dopamine receptor D2 expressed in CHO-K1 cells
# Assay type: cell-based
# Details: not given
row,SMILES,IC50 [nM]
1,CCCN1CCC(C2CCCCC2)C1 (centres undefined),> 1000
2,CN1CCC(C2=CN=CCC2)C1 (centres undefined),> 1000

# Target: T4, D(3) dopamine receptor (Rattus norvegicus, UniProt P19020)
# T4 sequence (P19020 whole entry): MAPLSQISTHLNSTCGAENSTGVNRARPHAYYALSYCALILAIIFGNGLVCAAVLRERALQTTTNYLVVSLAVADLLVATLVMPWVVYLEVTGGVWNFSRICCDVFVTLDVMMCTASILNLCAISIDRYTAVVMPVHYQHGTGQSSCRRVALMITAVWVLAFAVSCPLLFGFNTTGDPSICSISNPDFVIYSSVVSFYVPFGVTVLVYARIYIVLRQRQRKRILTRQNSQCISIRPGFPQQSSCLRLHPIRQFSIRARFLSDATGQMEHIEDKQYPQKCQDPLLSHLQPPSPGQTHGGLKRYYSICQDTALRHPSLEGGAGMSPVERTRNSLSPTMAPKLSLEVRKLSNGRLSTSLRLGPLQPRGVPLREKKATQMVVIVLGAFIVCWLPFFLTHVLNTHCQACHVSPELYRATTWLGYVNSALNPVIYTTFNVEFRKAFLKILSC
# Test: Binding affinity against [3H]spiperone binding to Dopamine receptor D3 expressed in CHO-K1 cells
# Assay type: cell-based
# Details: not given
row,SMILES,Ki [nM]
1,FC(F)(F)c1cccc(C2CCNC2)c1 (centres undefined),633
2,CCCN1CCC(c2ccccc2)C1 (centres undefined),> 2500
3,CCCN1CCC(c2cccc(OS(=O)(=O)C(F)(F)F)c2)C1 (centres undefined),62

# Target: T1, 5-hydroxytryptamine receptor 1A
# Test: Inhibitory concentration against [3H]8-OH-DPAT binding to 5-hydroxytryptamine 1A receptor expressed in CHO-K1 cells
# Assay type: cell-based
# Details: not given
row,SMILES,IC50 [nM]
1,CCCN1CCC(C2CCCCC2)C1 (centres undefined),> 1000
2,CN1CCC(C2=CN=CCC2)C1 (centres undefined),> 1000

# Target: T3, D(2) dopamine receptor
# Test: Binding affinity against [3H]U-86170 binding to Dopamine receptor D2 expressed in CHO-K1 cells
# Assay type: cell-based
# Details: not given
row,SMILES,Ki [nM]
1,FC(F)(F)c1cccc(C2CCNC2)c1 (centres undefined),100
2,CCCN1CCC(c2cccc3ccccc23)C1 (centres undefined),71
3,CCCN1CCC(c2ccccc2)C1 (centres undefined),625
4,CCCN1CCC(c2cccc(OS(=O)(=O)C(F)(F)F)c2)C1 (centres undefined),162

# Tested on: Rattus norvegicus
# Test: Accumulation of Dihydroxyphenylalanine in cortical brain region in rat after injecting drug compound 65 min and NSD 1015 at a dose of 100 mg/kg administered subcutaneously, 30 min before death, tested in vivo
# Assay type: functional
# Details: route subcutaneous
row,SMILES,Control [%]
1,FC(F)(F)c1cccc(C2CCNC2)c1 (centres undefined),72
2,CCCN1CCC(c2cccc3ccccc23)C1 (centres undefined),115
3,CCCN1CCC(c2ccccc2)C1 (centres undefined),130
4,CCCN1CCC(C2CCCCC2)C1 (centres undefined),119
5,CN1CCC(C2=CN=CCC2)C1 (centres undefined),126
6,CCCN1CCC(c2cccc(OS(=O)(=O)C(F)(F)F)c2)C1 (centres undefined),114

# Tested on: Rattus norvegicus
# Test: Accumulation of 5-Hydroxytryptophan in cortical brain region in rat after injecting drug compound 65 min and NSD 1015 at a dose of 100 mg/kg administered subcutaneously, 30 min before death, tested in vivo
# Assay type: functional
# Details: route subcutaneous
row,SMILES,Control [%]
1,FC(F)(F)c1cccc(C2CCNC2)c1 (centres undefined),70
2,CCCN1CCC(c2cccc3ccccc23)C1 (centres undefined),57
3,CCCN1CCC(c2ccccc2)C1 (centres undefined),83
4,CCCN1CCC(C2CCCCC2)C1 (centres undefined),88
5,CN1CCC(C2=CN=CCC2)C1 (centres undefined),79
6,CCCN1CCC(c2cccc(OS(=O)(=O)C(F)(F)F)c2)C1 (centres undefined),98

# Tested on: Rattus norvegicus
# Test: Accumulation of 5-Hydroxytryptophan in limbic region in rat after injecting drug compound 65 min and NSD 1015 at a dose of 100 mg/kg administered subcutaneously, 30 min before death, tested in vivo
# Assay type: functional, Limbic system
# Details: route subcutaneous
row,SMILES,Control [%]
1,FC(F)(F)c1cccc(C2CCNC2)c1 (centres undefined),70
2,CCCN1CCC(c2cccc3ccccc23)C1 (centres undefined),53
3,CCCN1CCC(c2ccccc2)C1 (centres undefined),92
4,CCCN1CCC(C2CCCCC2)C1 (centres undefined),102
5,CN1CCC(C2=CN=CCC2)C1 (centres undefined),72
6,CCCN1CCC(c2cccc(OS(=O)(=O)C(F)(F)F)c2)C1 (centres undefined),85

# Tested on: Rattus norvegicus
# Test: Accumulation of Dihydroxyphenylalanine in limbic region in rat after injecting drug compound 65 min and NSD 1015 at a dose of 0.07 mg/kg administered subcutaneously, 30 min before death, tested in vivo
# Assay type: functional, Limbic system
# Details: route subcutaneous
row,SMILES,Control [%]
1,O=C(CCCN1CCC(O)(c2ccc(Cl)cc2)CC1)c1ccc(F)cc1 [HALOPERIDOL],241

# Target: T2, Serotonin 2 (5-HT2) receptor
# Test: Inhibitory concentration against [3H]ketanserin binding to 5-hydroxytryptamine 2 receptor expressed in CHO-K1 cells
# Assay type: cell-based
# Details: not given
row,SMILES,IC50 [nM]
1,CCCN1CCC(c2ccccc2)C1 (centres undefined),> 1000
2,CCCN1CCC(C2CCCCC2)C1 (centres undefined),> 1000
3,CN1CCC(C2=CN=CCC2)C1 (centres undefined),> 1000
4,CCCN1CCC(c2cccc(OS(=O)(=O)C(F)(F)F)c2)C1 (centres undefined),> 1000

# Target: T4, D(3) dopamine receptor
# Test: Inhibitory concentration against [3H]spiperone binding to Dopamine receptor D3 expressed in CHO-K1 cells
# Assay type: cell-based
# Details: not given
row,SMILES,IC50 [nM]
1,CCCN1CCC(c2cccc3ccccc23)C1 (centres undefined),> 1000
2,CCCN1CCC(C2CCCCC2)C1 (centres undefined),> 1000
3,CN1CCC(C2=CN=CCC2)C1 (centres undefined),> 1000

# Tested on: Rattus norvegicus
# Test: Locomotor activity, measured for 30 min after injection of drug, administered subcutaneously at 100 umol/kg
# Assay type: functional
# Details: not given
row,SMILES,Control [%]
1,O=C(CCCN1CCC(O)(c2ccc(Cl)cc2)CC1)c1ccc(F)cc1 [HALOPERIDOL],2
2,FC(F)(F)c1cccc(C2CCNC2)c1 (centres undefined),74
3,CCCN1CCC(c2cccc3ccccc23)C1 (centres undefined),80
4,CCCN1CCC(c2ccccc2)C1 (centres undefined),115
5,CCCN1CCC(C2CCCCC2)C1 (centres undefined),87
6,CN1CCC(C2=CN=CCC2)C1 (centres undefined),47
7,CCCN1CCC(c2cccc(OS(=O)(=O)C(F)(F)F)c2)C1 (centres undefined),93

# Source: ChEMBL document CHEMBL1159176, “Regioselective synthesis of 3-aryl substituted pyrrolidines via palladium catalyzed arylation: pharmacological evaluation for central dopaminergic and serotonergic activity” (Bioorg Med Chem Lett, 1997)
